# Assay results published in ChEMBL document CHEMBL1149970, “Novel dithiocarbamate carbapenems1 with anti-MRSA activity” (Bioorg Med Chem Lett, 1997).
# How the values were obtained:
# Staphylococcus aureus [1] = test: In vitro antibacterial activity against staphylococcus aureus 209P NIHJ JC1 organism; format: functional
# Escherichia coli = test: In vitro antibacterial activity against Escherichia coli NIHJ JC2 organism; format: functional
# Staphylococcus aureus [2] = test: In vitro antibacterial activity against staphylococcus aureus BB6294 organism (Methicillin-resistant strain); format: functional
# Pseudomonas aeruginosa = test: In vitro antibacterial activity against Pseudomonas aeruginosa MB5002 organism; format: functional
# Staphylococcus aureus [3] = test: In vitro antibacterial activity against staphylococcus aureus CSa1009 (Methicillin-resistant strain and b beta-Lactamase producing strain); format: functional
# [4] = system: Staphylococcus epidermidis; test: In vitro antibacterial activity against Staphylococcus epidermidis MB5181a organism; format: functional
# [5] = target: T1, Dipeptidase 1 (Sus scrofa) (UniProt P22412); test: Relative rate of hydrolysis of porcine renal dehydropeptidase-I (DHP-I) to imipenem; format: functional
# T1 sequence (whole entry): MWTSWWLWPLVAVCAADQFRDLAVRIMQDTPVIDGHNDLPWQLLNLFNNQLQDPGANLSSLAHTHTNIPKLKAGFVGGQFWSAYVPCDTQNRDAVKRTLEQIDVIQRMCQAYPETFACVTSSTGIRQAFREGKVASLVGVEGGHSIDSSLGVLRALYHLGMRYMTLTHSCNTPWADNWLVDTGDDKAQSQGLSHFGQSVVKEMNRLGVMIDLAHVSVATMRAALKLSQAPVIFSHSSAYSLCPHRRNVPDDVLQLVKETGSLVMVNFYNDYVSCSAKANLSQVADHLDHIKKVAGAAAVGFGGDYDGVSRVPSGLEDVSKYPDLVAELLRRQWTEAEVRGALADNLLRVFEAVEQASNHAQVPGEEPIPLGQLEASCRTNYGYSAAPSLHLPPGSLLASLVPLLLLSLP
# Enterococcus faecalis = test: In vitro antibacterial activity against Enterococcus faecalis MB4996 organism; format: functional
# [6] = target: T1, Dipeptidase 1 (Sus scrofa); test: Compound was measured for DHP-I susceptibility; format: functional
# [7] = PBP-2'' affinity was determined by the competition assay with [14C]benzylpenicillin using membrane isolated from MRSA BB6294 strain; format: functional, Staphylococcus aureus
# Staphylococcus aureus [8] = test: Compound was tested in vitro for its anti-methicillin-resistant staphylococcus aureus(MRSA); 3.13-6.25; format: functional
# [9] = Compound was measured for binding rate for human serum at a carbapenem concentration of 10 ug/mL; format: ADME; details: read-out: Protein binding (converted)
# Staphylococcus aureus [10] = test: Compound was tested in vivo for its anti-methicillin-resistant staphylococcus aureus(MRSA); format: functional
# Rattus norvegicus = test: Epileptogenicity of compound was measured at 100 ug/rat head by the rat intraventricular assay; 0/5; format: functional, Cerebral ventricle
# Mus musculus = species on record: Mus musculus; test: Compound was measured for binding rate for mouse serum at a carbapenem concentration of 10 ug/mL; format: functional
# [11] = Staphylococcus epidermidis, read-out: MIC
SMILES,MIC (Staphylococcus aureus [1]) [µg/mL],MIC (Escherichia coli) [µg/mL],MIC (Staphylococcus aureus [2]) [µg/mL],MIC (Pseudomonas aeruginosa) [µg/mL],MIC (Staphylococcus aureus [3]) [µg/mL],"MIC [4, 11] [µg/mL]",DHP-I susceptibility [5],MIC (Enterococcus faecalis) [µg/mL],MIC [4] [pug ml-1],DHP-I susceptibility [6],IC50 [7] [µg/mL],MIC (Staphylococcus aureus [8]) [µg/mL],fraction unbound at 10 ug/mL [9],ED50 (Staphylococcus aureus [10]) [mg/kg],Epileptogenicity (Rattus norvegicus),PPB (Mus musculus) [%]
C[C@@H](O)[C@H]1C(=O)N2C(C(=O)O)=C(SC(=S)N3CCC(O)C3)[C@H](C)[C@H]12 (some centres not stated),0.025,0.78,6.25,> 25,6.25,3.13,2.21,6.25,,,,,,,,
C[C@@H](O)[C@H]1C(=O)N2C(C(=O)O)=C(SC(=S)N3CCN(C)CC3)[C@H](C)[C@H]12,0.025,1.56,3.13,> 25,6.25,3.13,1.53,6.25,,,,,,,,
CCCN(C)C(=S)SC1=C(C(=O)O)N2C(=O)[C@H]([C@@H](C)O)[C@H]2[C@H]1C,0.025,25,3.13,25,3.13,3.13,2.71,6.25,,,,,,,,
CCN(CCO)C(=S)SC1=C(C(=O)O)N2C(=O)[C@H]([C@@H](C)O)[C@H]2[C@H]1C,0.025,6.25,6.25,> 25,6.25,3.13,2.38,6.25,,,,,,,,
C[C@@H](O)[C@H]1C(=O)N2C(C(=O)O)=C(SC(=S)N3CCCCC3)[C@H](C)[C@H]12,0.025,25,1.56,> 25,3.13,3.13,3.1,6.25,,,,,,,,
C=CCN(CCCO)C(=S)SC1=C(C(=O)O)N2C(=O)[C@H]([C@@H](C)O)[C@H]2[C@H]1C,0.025,12.5,3.13,> 25,3.13,,1.39,6.25,3.13,,,,,,,
C[C@@H](O)[C@H]1C(=O)N2C(C(=O)O)=C(SC(=S)N3CC(O)C3)[C@H](C)[C@H]12,0.025,0.78,6.25,> 25,6.25,3.13,2.32,12.5,,,,,,,,
CCN(CC)C(=S)SC1=C(C(=O)O)N2C(=O)[C@H]([C@@H](C)O)[C@H]2[C@H]1C,0.025,25,3.13,25,3.13,3.13,2.51,12.5,,,,,,,,
C[C@@H](O)[C@H]1C(=O)N2C(C(=O)O)=C(SC(=S)N(C)Cc3ccccc3)[C@H](C)[C@H]12,0.012,12.5,1.56,> 25,1.56,3.13,1.94,1.56,,,,,,,,
C[C@@H](O)[C@H]1C(=O)N2C(C(=O)O)=C(SC(=S)N3CCCC(O)CC3)[C@H](C)[C@H]12 (some centres not stated),0.012,12.5,3.13,> 25,3.13,3.13,2.88,3.13,,2.88,1.9,3.55,0.15,2.88,0,92
